# ChEMBL document CHEMBL3351373, “Five-membered heteroaromatic ring fused-pyrimidine derivatives: design, synthesis, and hedgehog signaling pathway inhibition study” (Bioorg Med Chem Lett, 2014)
# Assay: Inhibition of hedgehog receptor signaling pathway in mouse NIH3T3 cells transfected with Gli-reporter gene by luciferase reporter gene assay
# Format: cell-based
row,IC50,SMILES
1,3.61 nM,Cc1cccc(C)c1NC(=O)c1ccc(Nc2nc(-c3ccc(OC(F)(F)F)cc3)c3sccc3n2)cc1
2,0.6 nM,Cc1cccc(C)c1NC(=O)c1ccc(Nc2nc(-c3ccc(OC(F)(F)F)cc3)c3ccsc3n2)cc1
3,512 nM,Cc1cccc(C)c1NC(=O)c1ccc(Nc2nc(-c3ccc(OC(F)(F)F)cc3)c3nc[nH]c3n2)cc1
4,1.78 nM,Cc1cccc(C)c1NC(=O)c1ccc(Nc2nc(-c3ccc(OC(F)(F)F)cc3)c3occc3n2)cc1
5,12.8 nM,Cc1cccc(C)c1NC(=O)c1ccc(Nc2nc(-c3ccc(OC(F)(F)F)cc3)c3[nH]ccc3n2)cc1
6,0.69 nM,Cc1ccc(CN2CCOCC2)cc1NC(=O)c1ccc(Nc2nc(-c3ccc(OC(F)(F)F)cc3)c3nc[nH]c3n2)cc1
7,0.9 nM,Cc1ccc(CN2CCN(C)CC2)cc1NC(=O)c1ccc(Nc2nc(-c3ccc(OC(F)(F)F)cc3)c3nc[nH]c3n2)cc1
8,116 nM,Cc1cccc(C)c1NC(=O)c1ccc(Nc2nc(-c3ccc(OC(F)(F)F)cc3)c3ncn(C)c3n2)cc1
9,1.17 nM,Cc1cccc(C)c1NC(=O)c1ccc(Nc2nc(-c3ccc(OC(F)(F)F)cc3)c3c(ccn3C)n2)cc1
10,6.85 nM,Cc1cccc(C)c1NC(=O)c1ccc(Nc2nc(-c3ccc(OC(F)(F)F)cc3)c3cc[nH]c3n2)cc1
11,2.98 nM,Cc1ccc(OCCN2CCOCC2)cc1NC(=O)c1ccc(Nc2nc(-c3ccc(OC(F)(F)F)cc3)c3nc[nH]c3n2)cc1
12,2.58 nM,Cc1cccc(C)c1NC(=O)c1ccc(Nc2nc(-c3ccc(OC(F)(F)F)cc3)c3ccn(C)c3n2)cc1

# More lines, now with the values behind:
row,SMILES,IC50
1,Cc1ccc(CN2CCN(C)CC2)cc1NC(=O)c1ccc(Nc2nc(-c3ccc(OC(F)(F)F)cc3)c3sccc3n2)cc1,9.39 nM
2,O=C1Cc2cc(Nc3nc(-c4ccc(OC(F)(F)F)cc4)c4nc[nH]c4n3)ccc2N1,> 1000 nM
3,Cc1ccc(CN2CCOCC2)cc1NC(=O)c1ccc(Nc2nc(-c3ccc(OC(F)(F)F)cc3)c3ncn(C)c3n2)cc1,0.35 nM
4,Cc1ccc(CN2CCOCC2)cc1NC(=O)c1ccc(Nc2nc(-c3ccc(OC(F)(F)F)cc3)c3occc3n2)cc1,1.13 nM
5,Cc1ccc(CN2CCOCC2)cc1NC(=O)c1ccc(Nc2nc(-c3ccc(OC(F)(F)F)cc3)c3cc[nH]c3n2)cc1,6.04 nM
6,CS(=O)(=O)c1ccc(C(=O)Nc2ccc(Cl)c(-c3ccccn3)c2)c(Cl)c1 [VISMODEGIB],7.17 nM
7,Cc1ccc(CN2CCN(C)CC2)cc1NC(=O)c1ccc(Nc2nc(-c3ccc(OC(F)(F)F)cc3)c3c(ccn3C)n2)cc1,5.1 nM
8,Cc1ccc(CN2CCOCC2)cc1NC(=O)c1ccc(Nc2nc(-c3ccc(OC(F)(F)F)cc3)c3ccsc3n2)cc1,1.75 nM
9,FC(F)(F)Oc1ccc(-c2nc(Nc3ccc4[nH]ncc4c3)nc3[nH]cnc23)cc1,399 nM
10,Cc1ccc(CN2CCN(C)CC2)cc1NC(=O)c1ccc(Nc2nc(-c3ccc(OC(F)(F)F)cc3)c3ccsc3n2)cc1,3.36 nM
11,Cc1ccc(CN2CCN(C)CC2)cc1NC(=O)c1ccc(Nc2nc(-c3ccc(OC(F)(F)F)cc3)c3[nH]ccc3n2)cc1,1.39 nM
